Values quoted from earlier work as cited in patent US12611419B2, “Liposomal composition for use in a method of treating Parkinson's disease” (INNOMEDICA HOLDING AG, priority 2017, dated 2026).

How the values were obtained:
[1] = system: rodent model of Parkinson's disease; conditions: in vivo
B4galnt1 transgenic mice = conditions: mice deficient in GM1 family gangliosides
spinal cord injuries = conditions: patients

For `CCCCCCCCCCCCC/C=C/C(O)C(COC1OC(CO)C(OC2OC(CO)C(OC3OC(CO)C(O)C(OC4OC(CO)C(O)C(O)C4O)C3NC(C)=O)C(OC3(C(=O)O)CC(O)C(NC(C)=O)C(C(O)C(O)CO)O3)C2O)C(O)C1O)NC(=O)C(Cl)Cl` (centres unmarked) [LIGA20], the “Parkinson's symptoms” value [1] is listed as “reduce Parkinson's symptoms”.

In the case of monosialotetrahexosylganglioside [GM1], the “pathological CNS manifestations” value (B4galnt1 transgenic mice) is given as “ameliorated these pathological CNS manifestations”, the “outcome in spinal cord injuries” value (spinal cord injuries) is given as “positive outcomes in patients” and the “safety, open pilot study” value (PD patients; 10 PD patients, 1000 mg i.v. then 200 mg/day subcutaneous, 18 weeks) is given as “safe and well tolerated”. For the same compound, the “anti-GM1 antibody titres, open pilot study” value (PD patients; 10 PD patients, 18 weeks) was “none of the patients developed elevated anti-GM1 antibody titres”, the “PET (11)C-methylphenidate binding” value (PD patients; GM1-treated groups, baseline, week 24, 1-2 years later) was “significant slowing of binding loss in several striatal regions” and the “safety of long-term administration” value (PD patients; delayed start study) was “safe and well tolerated”. The “UPDRS motor scores, early-start group” value (PD patients; delayed start study, week 24) was “significant improvement in UPDRS motor scores”, the “UPDRS motor scores, five-year open extension” value (PD patients; end of 5 years of GM1 use, off period) was “lower UPDRS motor scores” and the “UPDRS motor scores vs placebo” value (PD patients; randomized placebo-controlled study, 45 individuals, 16 weeks) was “significant differences between groups”. For the same compound, the “adverse events at the injection site” value (PD patients; subcutaneous administration) was “pain, irritation of the skin site and severe haematoma at the injection site occur”.
